Where “and” joins values, the source holds several entries; their conditions need not be identical. Equal values may be shown once. Toxic doses and inconclusive results are not listed. No stated cut-off is given here; in the data, active means T/C of 150% or more; inactive means T/C below 125%.
Test system: L1210 leukemia ip in BDF1 mice, survival T/C
Assay: NCI In Vivo Anticancer Drug Screen. Data for tumor model L1210 Leukemia (intraperitoneal) in B6D2F1 (BDF1) mice
Conditions: endpoint: mean survival time, higher = longer survival
Procedure, shortened: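 Transplantable tumor model; survival measured in treated vs vehicle control mice. Value = treated/control.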

[1] = dose: 100.0 mg/kg/injection, schedule: Q04DX003 (ip), vehicle: saline with Tween-80
[2] = dose: 200.0 mg/kg/injection, schedule: Q04DX003 (ip), vehicle: saline with Tween-80
[3] = dose: 400.0 mg/kg/injection, schedule: Q04DX003 (ip), vehicle: saline with Tween-80
[4] = dose: 100.0 mg/kg/injection, schedule: Q01DX009 (ip), vehicle: saline
[5] = dose: 100.0 mg/kg/injection, schedule: Q04DX003 (ip), vehicle: Klucel (hydroxypropylcellulose) (HPC)
[6] = dose: 200.0 mg/kg/injection, schedule: Q04DX003 (ip), vehicle: Klucel (hydroxypropylcellulose) (HPC)
[7] = dose: 400.0 mg/kg/injection, schedule: Q04DX003 (ip), vehicle: Klucel (hydroxypropylcellulose) (HPC)
[8] = dose: 100.0 mg/kg/injection, schedule: Q01DX009 (ip), vehicle: saline with Tween-80
[9] = dose: 200.0 mg/kg/injection, schedule: Q01DX009 (ip), vehicle: saline with Tween-80
[10] = dose: 100.0 mg/kg/injection, schedule: Q01DX001 (ip), vehicle: saline
[11] = dose: 200.0 mg/kg/injection, schedule: Q01DX001 (ip), vehicle: saline
[12] = dose: 400.0 mg/kg/injection, schedule: Q01DX001 (ip), vehicle: saline
[13] = dose: 100.0 mg/kg/injection, schedule: Q01DX001 (ip), vehicle: Klucel (hydroxypropylcellulose) (HPC)
[14] = dose: 100.0 mg/kg/injection, schedule: Q01DX009 (ip), vehicle: Klucel (hydroxypropylcellulose) (HPC)
[15] = dose: 100.0 mg/kg/injection, schedule: Q04DX002 (ip), vehicle: Klucel (hydroxypropylcellulose) (HPC)
[16] = dose: 200.0 mg/kg/injection, schedule: Q01DX001 (ip), vehicle: Klucel (hydroxypropylcellulose) (HPC)
[17] = dose: 200.0 mg/kg/injection, schedule: Q01DX009 (ip), vehicle: Klucel (hydroxypropylcellulose) (HPC)
[18] = dose: 200.0 mg/kg/injection, schedule: Q04DX002 (ip), vehicle: Klucel (hydroxypropylcellulose) (HPC)
[19] = dose: 400.0 mg/kg/injection, schedule: Q01DX009 (ip), vehicle: Klucel (hydroxypropylcellulose) (HPC)

Measured: T/C

CC1(C)C(=NC2CCCCC2)C(C)(C)C1=NC1CCCCC1
inactive: dose: 75.0 mg/kg/injection, schedule: Q01DX001 (ip), vehicle: saline 101 % of control | dose: 150.0 mg/kg/injection, schedule: Q01DX001 (ip), vehicle: saline 100 % of control | dose: 300.0 mg/kg/injection, schedule: Q01DX001 (ip), vehicle: saline 100 % of control

CCC(CO)NC(=O)/C=C/c1ccc(Cl)cc1 (stereo unspecified)
inactive: dose: 100.0 mg/kg/injection, schedule: Q01DX001 (ip), vehicle: saline with Tween-80 101 % of control | [1] 110 % of control | dose: 200.0 mg/kg/injection, schedule: Q01DX001 (ip), vehicle: saline with Tween-80 100 % of control | [2] 108 % of control | dose: 400.0 mg/kg/injection, schedule: Q01DX001 (ip), vehicle: saline with Tween-80 92 % of control | [3] 98 % of control

c1ccc(C([CH2][Hg][CH2]C(c2ccccc2)c2ccccc2)c2ccccc2)cc1
inactive: [4] 101 % of control | [5] 97 % of control | dose: 200.0 mg/kg/injection, schedule: Q01DX009 (ip), vehicle: saline 96 % of control | [6] 93 % of control | dose: 400.0 mg/kg/injection, schedule: Q01DX009 (ip), vehicle: saline 101 % of control | [7] 90 % of control

O=C1NC2CCC(NC(=O)N1c1ccccc1)C1=C2C1
inactive: dose: 3.13 mg/kg/injection, schedule: Q01DX009 (ip), vehicle: saline with Tween-80 94 % of control | dose: 6.25 mg/kg/injection, schedule: Q01DX009 (ip), vehicle: saline with Tween-80 90 % of control | dose: 6.25 mg/kg/injection, schedule: Q04DX003 (ip), vehicle: saline with Tween-80 106 % of control | dose: 12.5 mg/kg/injection, schedule: Q01DX009 (ip), vehicle: saline with Tween-80 97 % of control | dose: 12.5 mg/kg/injection, schedule: Q04DX003 (ip), vehicle: saline with Tween-80 94 % of control

NC(N)=NC1=NC(=O)CS1
inactive: [8] 105 % of control | [1] 108 % of control | [9] 103 % of control | [2] 96 % of control | dose: 400.0 mg/kg/injection, schedule: Q01DX009 (ip), vehicle: saline with Tween-80 103 % of control | [3] 92 % of control

CCCCCCCCCCCCCC(C)C
inactive: [10] 96 % of control | [11] 102 % of control | [12] 94 % of control

CC(C)(C)C1(C)OCCCO1
inactive: dose: 100.0 mg/kg/injection, schedule: Q04DX002 (ip), vehicle: saline with Tween-80 101 % of control | dose: 200.0 mg/kg/injection, schedule: Q04DX002 (ip), vehicle: saline with Tween-80 108 % of control | dose: 400.0 mg/kg/injection, schedule: Q04DX002 (ip), vehicle: saline with Tween-80 87 % of control

O=c1cc(N(Cc2ccccc2)Cc2ccccc2)[nH]c(=O)[nH]1
inactive: dose: 75.0 mg/kg/injection, schedule: Q01DX001 (ip), vehicle: Klucel (hydroxypropylcellulose) (HPC) 101 % of control | dose: 75.0 mg/kg/injection, schedule: Q01DX001 (ip), vehicle: saline with Tween-80 94 % of control | dose: 150.0 mg/kg/injection, schedule: Q01DX001 (ip), vehicle: Klucel (hydroxypropylcellulose) (HPC) 102 % of control | dose: 150.0 mg/kg/injection, schedule: Q01DX001 (ip), vehicle: saline with Tween-80 95 % of control | dose: 300.0 mg/kg/injection, schedule: Q01DX001 (ip), vehicle: Klucel (hydroxypropylcellulose) (HPC) 106 % of control | dose: 300.0 mg/kg/injection, schedule: Q01DX001 (ip), vehicle: saline with Tween-80 98 % of control

S=c1[nH]c2c(Cl)c(Cl)c(Cl)c(Cl)c2[nH]1
inactive: [8] 90 % of control | [1] 100 % of control | [9] 95 % of control | [2] 98 % of control | [3] 102 % of control

COc1ccc(COC(=O)Nc2cccc(Cl)c2)cc1
inactive: [13] 111 % of control | [14] 93 % of control and 97 % of control | [15] 100 % of control | [5] 108 % of control | [16] 101 % of control | [17] 90 % of control and 92 % of control | [18] 104 % of control | [6] 102 % of control | dose: 400.0 mg/kg/injection, schedule: Q01DX001 (ip), vehicle: Klucel (hydroxypropylcellulose) (HPC) 95 % of control | [19] 93 % of control and 90 % of control | [7] 111 % of control

CN1CCCCC1(Cc1ccccc1)Cc1ccccc1
inactive: dose: 50.0 mg/kg/injection, schedule: Q01DX009 (ip), vehicle: saline 102 % of control | [4] 90 % of control | dose: 100.0 mg/kg/injection, schedule: Q04DX003 (ip), vehicle: saline 106 % of control | dose: 200.0 mg/kg/injection, schedule: Q04DX003 (ip), vehicle: saline 95 % of control

COc1cc(CC2c3cc(OC)c(OC)cc3CCN2C)c(Oc2cc3c(cc2OC)-c2c(OC)c(OC)c(OC)c4c2C(C3)N(C)CC4)cc1OC (stereo unspecified)
inactive: [1] 97 % of control | [2] 97 % of control

COC1(c2ccccc2)c2cc3ccccc3cc2C(OC)(c2ccccc2)c2cc3ccccc3cc21 (stereo unspecified)
inactive: [15] 98 % of control | [18] 109 % of control | dose: 400.0 mg/kg/injection, schedule: Q04DX002 (ip), vehicle: Klucel (hydroxypropylcellulose) (HPC) 95 % of control

CCCCCCC(=O)CCC(=O)CCCCCCCC(=O)O
inactive: dose: 50.0 mg/kg/injection, schedule: Q01DX001 (ip), vehicle: Klucel (hydroxypropylcellulose) (HPC) 103 % of control | [13] 89 % of control | [16] 100 % of control

O=S1(=O)C(c2ccccc2)=C1c1ccccc1
inactive: dose: 12.5 mg/kg/injection, schedule: Q01DX001 (ip), vehicle: other 100 % of control | dose: 12.5 mg/kg/injection, schedule: Q01DX009 (ip), vehicle: other 95 % of control | dose: 25.0 mg/kg/injection, schedule: Q01DX001 (ip), vehicle: other 94 % of control and 100 % of control | dose: 25.0 mg/kg/injection, schedule: Q01DX009 (ip), vehicle: other 101 % of control | dose: 50.0 mg/kg/injection, schedule: Q01DX001 (ip), vehicle: other 97 % of control and 101 % of control | dose: 50.0 mg/kg/injection, schedule: Q01DX009 (ip), vehicle: other 86 % of control

Cc1ccc2c(c1)SN(CN1C(=O)c3ccccc3C1=O)N2
inactive: [14] 103 % of control | [5] 94 % of control | [17] 93 % of control | [6] 96 % of control | [19] 90 % of control | [7] 91 % of control

O=C(Nc1cccc(Cl)c1)OCCN(CCOC(=O)Nc1cccc(Cl)c1)Cc1ccccc1
inactive: [10] 106 % of control | [11] 95 % of control | [12] 97 % of control
